In ChEMBL document CHEMBL1201862, “PubChem BioAssay data set” (2004):
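These data come from cells grown in 96-well plates and exposed to compound for 48 hours at five concentrations. GI50 marks 50% less growth.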 Active and inactive are the calls of the source. Rule as the data show it: active = GI50 up to about 1.1 µM and inactive = higher.

Experiments:
Assay in all cases: growth of human tumour cells (NCI), 48 h
MOLT-4 = tested on: MOLT-4
SW-620 = tested on: SW-620
T47D = tested on: T47D
OVCAR-3 = tested on: OVCAR-3
SNB-75 = tested on: SNB-75
UACC-62 = tested on: UACC-62
M14 = tested on: M14
ACHN = tested on: ACHN
A498 = tested on: A498
HCC 2998 = tested on: HCC 2998
CCRF-CEM = tested on: CCRF-CEM
DU-145 = tested on: DU-145
SNB-19 = tested on: SNB-19
SN12C = tested on: SN12C
NCI-H23 = tested on: NCI-H23
UACC-257 = tested on: UACC-257
NCI/ADR-RES = tested on: NCI/ADR-RES
CAKI-1 = tested on: CAKI-1

Measured: GI50

Cc1cccc2c1C(=O)C1(Cc3ccccc3C1=O)C2 (stereo not drawn)
inactive: MOLT-4 91.2 µM | SW-620 > 100 µM | T47D 52.8 µM | OVCAR-3 > 100 µM | SNB-75 46.5 µM | UACC-62 84.7 µM | M14 > 100 µM | ACHN > 100 µM | A498 47.1 µM | HCC 2998 > 100 µM | CCRF-CEM > 100 µM | DU-145 > 100 µM | SNB-19 > 100 µM | SN12C > 100 µM | NCI-H23 > 100 µM | UACC-257 > 100 µM | NCI/ADR-RES 87.1 µM

OCN(CO)c1ccc2c(c1)Cc1cc(F)ccc1-2
inactive: MOLT-4 25.2 µM | SW-620 12.4 µM | T47D 17.8 µM | OVCAR-3 13.9 µM | SNB-75 19.1 µM | UACC-62 16.6 µM | M14 21 µM | CAKI-1 20 µM | ACHN 17.6 µM | DU-145 23.2 µM | SNB-19 17.9 µM | SN12C 18.2 µM | NCI-H23 33.3 µM | UACC-257 18.7 µM | NCI/ADR-RES 20.2 µM

O=P(O)(O)C=C=C1CCCCC1
inactive: SW-620 > 100 µM | T47D > 100 µM | OVCAR-3 > 100 µM | SNB-75 > 100 µM | UACC-62 > 100 µM | M14 > 100 µM | CAKI-1 > 100 µM | ACHN > 100 µM | A498 > 100 µM | HCC 2998 > 100 µM | DU-145 > 100 µM | SNB-19 > 100 µM | SN12C > 100 µM | NCI-H23 > 100 µM | UACC-257 > 100 µM | NCI/ADR-RES > 100 µM

Oc1ccc(Cl)cc1-c1cc(-c2ccccc2)nc(S)n1
inactive: MOLT-4 > 100 µM | SW-620 > 100 µM | T47D > 100 µM | OVCAR-3 > 100 µM | SNB-75 21.5 µM | M14 > 100 µM | CAKI-1 > 100 µM | ACHN 30.3 µM | A498 41.6 µM | HCC 2998 > 100 µM | CCRF-CEM > 100 µM | DU-145 > 100 µM | SNB-19 42.9 µM | SN12C 93.1 µM | NCI-H23 88.5 µM | UACC-257 > 100 µM | NCI/ADR-RES 97.9 µM

CC(C)(C)c1ccc(O)c(C(c2ccc([N+](=O)[O-])cc2)c2cc(C(C)(C)C)ccc2O)c1
inactive: MOLT-4 2.07 µM | SW-620 2.11 µM | T47D 2.65 µM | OVCAR-3 1.79 µM | SNB-75 2.05 µM | UACC-62 1.66 µM | M14 1.68 µM | CAKI-1 1.51 µM | ACHN 1.85 µM | A498 2.11 µM | HCC 2998 1.95 µM | CCRF-CEM 2.98 µM | DU-145 2.39 µM | SNB-19 2.41 µM | SN12C 2.38 µM | NCI-H23 1.99 µM | UACC-257 1.79 µM | NCI/ADR-RES 2.73 µM

O=C1CCC[C@H]2O[C@@H](COCc3ccccc3)C[C@@H]12
inactive: MOLT-4 > 100 µM | SW-620 > 100 µM | T47D > 100 µM | OVCAR-3 > 100 µM | SNB-75 > 100 µM | UACC-62 > 100 µM | M14 > 100 µM | CAKI-1 > 100 µM | ACHN > 100 µM | A498 > 100 µM | CCRF-CEM > 100 µM | DU-145 > 100 µM | SNB-19 > 100 µM | SN12C > 100 µM | NCI-H23 > 100 µM | UACC-257 > 100 µM | NCI/ADR-RES > 100 µM

CCN(CC)c1ccc(/N=N\c2ccc(-c3nc4ccc[n+](C)c4s3)cc2)cc1
inactive: MOLT-4 2.84 µM | SW-620 4.75 µM | OVCAR-3 3.53 µM | SNB-75 9.4 µM | UACC-62 7.59 µM | M14 13.2 µM | CAKI-1 19.7 µM | A498 13.4 µM | CCRF-CEM 3.05 µM | SNB-19 5.3 µM | SN12C 4.29 µM | NCI-H23 5.5 µM | UACC-257 5.01 µM
